# Where a name gives a salt, the structure may show the parent alone.
# Tests used:
# [1] = molecular target: rat striatal dopamine receptor (Rattus norvegicus, UniProt P61169); assay: Test A: [3H]Spiroperidol displacement from rat striatal dopamine receptor binding sites; details: rat striatal membranes, [3H]spiroperidol 0.19 nM, 37° C., 10 minutes, pH 7.6; read-out: Test A receptor DA IC50
# Experimental: Test A--[^3 H Spiroperidol displacement from rat striatal dopamine receptor binding sites
# (a) Radioligand--[phenyl-4-(n)-^3 H]Spiroperido (Amersham International, TRK 570, 21 Ci/mmol was used as a 1 μCi/1 μl solution in ethanol and this solution was diluted to 250 μCi in 1 ml of ethanol to produce a stock solution. This stock solution was diluted 3.2/10,000 in assay buffer and 0.1 ml volumes of this were added to 2 ml binding assays =0.19 nM [^3 H]spiroperidol and =[…]
# (b) Assay buffer--The assay buffer was a modified 50 mM Tris HCl buffer with a pH of 7.6 containing the following additions: NaCl-120 mM, KCl-5 mM, MgCl2 -1 mM, CaCl2 -2 mM, Pargyline-10 μM and 1-Ascorbic Acid-0.1%
# (c) Membrane preparation--The striata were dissected from male CFHB rats and homogenized in 20 volumes of ice cold 0.32M sucrose with a Teflon/glass homogenizer and the homogenate was centrifuged at 1000 g for 10 minutes. The resulting supernatant was recentrifuged at 30,000 g for 30 minutes and the supernatant was discarded and the pellet was resuspended by homogenization in 30 volumes of ice cold assay buffer.
# (d) Non-specific binding--Non-specific binding was accounted for by the inclusion of 1 μM(+)butaclamol in blank binding assays which required a stock solution of 20 μM in distilled water.
# (e) Displacing compounds--Solutions were prepared at 20x final assay concentration in distilled water.
# (f) Binding assay protocol--1.3 ml assay buffer, 0.5 ml membrane suspension, 0.1 ml distilled H2 O or drug solution and 0.1 ml [^3 H]spiroperidol dilution Binding assays were made up in ice with the [^3 H]spiroperidol being added last and incubated at 37° C. for 10 minutes. The bound ligand was separated by filtration through Whatman GF/C filters under vacuum followed by 2×10 ml rinses of ice cold assay buffer. The filters were dried at 80° C. and counted in 5 ml volumes of ECONOFLUOR (NEN) scintillation cocktail. All binding assays, controls, blanks and each of four displacer concentration were run in triplicate. IC50 values (Test A) were obtained graphically from log dose versus percent inhibition of specific binding plots.
# rat cortical α1 receptor = assay: Test B: [3H]Prazosin displacement from rat cortical α1 receptor binding sites; details: rat cerebral cortex membranes, [3H]prazosin 0.1 nM, 25° C., 30 minutes, pH 7.5
# Experimental: Test B--[^3 H]Pyrazosin displacement from rat cortical α1 receptor binding sites (a) Radioligand--[^3 H]Prazosin (Amersham International, TRK 647, 28 Ci/mmole) was used as a 1 μCi/1 μl solution and this stock solution was diluted 1/18,000 in assay buffer and 0.1 ml volumes of this were added to 2 ml binding assay. =0.1 nM [^3 H]Prazosin and =0.0056 μCi/binding assay (b) Membrane preparation--The cerebral cortices were dissected from male CFHB rats and homogenized in 20 volumes of ice cold 0.32M sucrose using a Teflon/glass homogenizer and the homogenate was centrifuged at 1000 g for 10 minutes. The resulting pellet was discarded and the supernatant was recentrifuged at 30,000 g for 30 minutes. The supernatant was discarded and the pellet was resuspended by homogenization in 50 volumes of 50 mM pH 7.5 Tris HCl buffer (assay buffer). (c) Non-specific binding--Non-specific binding was accounted for by the inclusion of 100 μM 1-noradrenaline in blank binding assays which required a stock solution of 2 mM 1-noradrenaline made up fresh daily in 0.1% 1-ascorbic acid. (d) Displacing compounds--Solutions were prepared at 20x final assay concentration in distilled water. (e) Binding assay protocol--1.3 ml assay buffer, 0.5 ml membrane suspension, 0.1 ml distilled H2 O or drug solution and 0.1 ml [^3 H]pyrazosin dilution Binding assays were made up in ice with the [^3 H]pyrazosin being added last and incubated at 25° C. for 30 minutes. The bound ligand was separated by filtration through Whatman GF/C glass fibre filters under vacuum followed by 2×10 ml rinses of ice cold assay buffer. The filters were dried at 80° C. and counted in 5 ml volumes of ECONOFLUOR (NEN) scintillation cocktail. All binding assays, controls, blanks and each of four displacer concentrations were run in triplicate. IC50 values (Test B) were obtained graphically from log dose versus percent inhibition of specific binding plots.
# rat cortical α2 receptor = assay: Test C: [3H]Dihydroergocryptine displacement from rat cortical α2 receptor binding sites; details: for IC50: rat cortical membranes, [3H]dihydroergocryptine 0.45 nM, 25° C., 45 minutes in the dark, approximately 80% of binding is α2
# Experimental: Test C--[^3 H]Dihydroergocryptine displacement from rat cortical α2 *receptor binding sites
# (a) Radioligand--[9,10(n)-^3 H]9,10-Dihydroergocryptine (Amersham International, TRK 555, 17.5 Ci/mmole) was used as a 1 μCi/1 μl solution and this stock solution was diluted 1/6250 in assay buffer and 0.1 ml volumes of this were added to 2 ml binding assays. =0.45 nM and =0.016 μCi/binding assay
# *In cortical membranes, [^3 H]dihydroergocryptine binds to both α1 and α2 receptor binding sites under the conditions of assay described here, approximately 80% of the binding is associated with α2 receptors.
# (§1) (b) Membrane preparation--As for Test B
# (c) Non-specific binding--As for Test B
# (d) Displacing compounds--As for Test B
# (e) Assay protocol--As for Test B with the exception that the binding assays were incubated at 25° C. for 45 minutes in the dark.
# [2] = molecular target: rat cortical muscarinic receptor; assay: Test D: [3H]Quinuclidinyl benzylate displacement from rat cortical muscarinic receptor binding sites; details: rat cortical membranes, [3H]quinuclidinyl benzylate 0.31 nM, 25° C., 60 minutes; read-out: Test D MUSC IC50
# Experimental: Test D--[^3 H]Quinuclidinyl benzylate displacement from rat cortical muscarinic receptor binding sites
# (a) Radioligand--DL-[3-^3 H]Quinuclidinyl benzylate (Amersham International, TRK 506, 12 Ci/mmol) was used as a 1 μCi/1 μl solution and this stock solution was diluted 1/13333 in assay buffer and 0.1 ml volumes of this were added to 2 ml binding assay =0.31 nM and =0.0075 μCi/binding assay
# as §1
# (c) Non-specific binding--Non-specific binding was accounted for by the inclusion of 100 μM oxotremorine sesquifumarate in blank binding assays and this required a stock solution of 2 mM in distilled H2 O.
# (d) Displacement compounds--As for Test B
# (e) Assay protocol--As for Test B with the exception that the binding assays were incubated at 25° C. for 60 minutes.
# Chain of rat striatal dopamine receptor (P61169 whole entry): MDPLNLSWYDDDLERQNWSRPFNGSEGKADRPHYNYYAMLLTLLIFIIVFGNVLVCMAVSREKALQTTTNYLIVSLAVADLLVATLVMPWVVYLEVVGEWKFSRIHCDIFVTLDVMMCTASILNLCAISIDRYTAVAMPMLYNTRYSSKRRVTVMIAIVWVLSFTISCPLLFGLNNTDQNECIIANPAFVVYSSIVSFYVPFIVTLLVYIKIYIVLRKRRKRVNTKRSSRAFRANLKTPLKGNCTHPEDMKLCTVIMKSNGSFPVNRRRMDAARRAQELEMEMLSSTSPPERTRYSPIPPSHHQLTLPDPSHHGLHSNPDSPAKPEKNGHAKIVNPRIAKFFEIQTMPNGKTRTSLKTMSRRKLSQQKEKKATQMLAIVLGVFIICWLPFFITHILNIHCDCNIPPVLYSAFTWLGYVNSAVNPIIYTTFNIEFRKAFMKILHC
IC50 [1],IC50 (rat cortical α1 receptor),IC50 (rat cortical α2 receptor),IC50 [2],Structure (SMILES),"share of the radioligand binding associated with α2 receptors (rat cortical α2 receptor; cortical membranes, under the conditions of assay)"
10 nM,2700 nM,230 nM,> 100000 nM,"O=c1c2c(sc3ccccc13)CCN(CC1CCCCC1)C2 [Example 20, 2-cyclohexylmethyl-1,2,3,4-tetrahydro-10H-(1)-benzothiopyrano[3,2-c]pyridin-10-one hydrochloride]",–
60 nM,680 nM,170 nM,87100 nM,"CC(C)CCN1CCc2sc3ccccc3c(=O)c2C1 [Example 15, 1,2,3,4-tetrahydro-2-isopentyl-10H-(1)-benzothiopyrano[3,2-c]pyridin-10-onehydrochloride]",–
130 nM,400 nM,80 nM,15800 nM,"CCCCCCN1CCc2sc3ccccc3c(=O)c2C1 [Example 18, 2-n-hexyl-1,2,3,4-tetrahydro-10H-(1)-benzothiopyrano[3,2-c]pyridin-10-one hydrochloride]",–
80 nM,890 nM,110 nM,75800 nM,"CCCCN1CCc2sc3ccccc3c(=O)c2C1 [Example 14, 2-n-butyl-1,2,3,4-tetrahydro-10H-(1)-benzothiopyrano[3,2-c]pyridin-10-one hydrochloride]",–
> 10000 nM,> 10000 nM,4300 nM,26900 nM,"COc1ccc2c(=O)c3c(sc2c1)CCNC3 [Example 3, 1,2,3,4-tetrahydro-7-methoxy-10H-(1)-benzothiopyrano[3,2-c]pyridin-10-one hydrochloride]",–
220 nM,1230 nM,60 nM,43000 nM,"O=c1c2c(sc3ccccc13)CCN(CC1CC1)C2 [Example 25, 2-cyclopropylmethyl-1,2,3,4-tetrahydro-10H-(1)-benzothiopyrano[3,2-c]pyridin-10-one]",–
150 nM,2820 nM,320 nM,> 100000 nM,O=c1c2c(sc3ccccc13)CCN(CC1CCCCCC1)C2 [Example 28],–
100 nM,4600 nM,150 nM,> 100000 nM,"CC(C)CN1CCc2sc3ccccc3c(=O)c2C1 [Example 19, 1,2,3,4-tetrahydro-2-isobutyl-10H-(1)-benzothiopyrano[3,2-c]pyridin-10-one hydrochloride]",–
60 nM,690 nM,50 nM,50000 nM,"O=c1c2c(sc3ccccc13)CCN(CC1CCC1)C2 [Example 26, 2-cyclobutylmethyl-1,2,3,4-tetrahydro-10H-(1)-benzothiopyrano[3,2-c]pyridin-10-one]",–
6500 nM,6600 nM,600 nM,32000 nM,"O=c1c2c(sc3ccccc13)CCNC2 [Example 1, 1,2,3,4-tetrahydro-10H-(1)-benzothiopyrano[3,2-c]pyridin-10-one hydrochloride]",–
2800 nM,3100 nM,930 nM,32400 nM,"CN1CCc2sc3ccccc3c(=O)c2C1 [Example 12, 1,2,3,4-tetrahydro-2-methyl-10H-(1)-benzothiopyrano[3,2-c]pyridin-10-one hydrochloride]",–
230 nM,170 nM,210 nM,46800 nM,O=c1c2c(sc3ccccc13)CCN(CCc1ccccc1)C2 [Example 32],–
5100 nM,> 10000 nM,2200 nM,85100 nM,"O=c1c2c(sc3ccc(Cl)cc13)CCNC2 [Example 7, 8-chloro-1,2,3,4-tetrahydro-10H-(1)-benzothiopyrano[3,2-c]pyridin-10-one hydrochloride]",–
10000 nM,10000 nM,3300 nM,71000 nM,O=c1c2c(sc3ccccc13)CCN(CCO)C2 [Example 35],–
170 nM,2630 nM,150 nM,> 100000 nM,O=c1c2c(sc3ccccc13)CCN(CC1=CCCCC1)C2 [Example 29],–
780 nM,7100 nM,1000 nM,100000 nM,"CCOC(=O)CCN1CCc2sc3ccccc3c(=O)c2C1 [Example 21, 2-(2-ethoxycarbonylethyl)-1,2,3,4-tetrahydro-10H-(1)-benzothiopyrano[3,2-c]pyridin-10-one hydrochloride]",–
> 10000 nM,> 10000 nM,> 10000 nM,> 100000 nM,"N#CCCN1CCc2sc3ccccc3c(=O)c2C1 [Example 22, 2-(2-cyanoethyl)-1,2,3,4-tetrahydro-10H-(1)-benzothiopyrano[3,2-c]pyridin-10-one hydrochloride]",–
560 nM,3400 nM,650 nM,74100 nM,O=c1c2c(sc3ccccc13)CCN(CCC1OCCCO1)C2 [Example 31],–
> 10000 nM,> 10000 nM,3300 nM,45700 nM,"Cc1ccc2sc3c(c(=O)c2c1)CNCC3 [Example 2, 1,2,3,4-tetrahydro-8-methyl-10H-(1)benzothiopyrano[3,2-c]pyridin-10-one hydrochloride]",–
5200 nM,1700 nM,1600 nM,19500 nM,"O=c1c2c(sc3ccc4ccccc4c13)CCNC2 [Example 5, 1,2,3,4-tetrahydro-12H-naphtho[1',2':5,6]thiopyrano[3,2-c]pyridin-12-one hydrochloride]",–
760 nM,> 10000 nM,2190 nM,91200 nM,"COc1ccc2sc3c(c(=O)c2c1)CN(CC1CCCCC1)CC3 [Example 38, 2-cyclohexylmethyl-8-methoxy-1,2,3,4-tetrahydro-10H-(1)-benzothiopyrano[3,2-c]pyridin-10-one hydrochloride]",–
–,–,–,–,"[3H]C1C(C(=O)NC2(C(C)C)OC3(O)C4CCCN4C(=O)C(CC(C)C)N3C2=O)CN(C)C2Cc3c[nH]c4cccc(c34)C12[3H] (stereo not shown) [[^3 H]dihydroergocryptine, [9,10(n)-^3 H]9,10-Dihydroergocryptine, reference compound]",approximately 80%

# Source: US4547507A, “Benzothiopyranopyridinones” (Roussel Uclaf, priority 1982, dated 1985)
